Assay results reported in PubChem BioAssay (NCI).
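Results reflect a 48-hour exposure of cells in 96-well plates to compound at five concentrations. The concentration for full growth arrest is given as TGI.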

Experiments:
Test in all cases: inhibition of tumour cell growth, NCI panel, 48 h
786-0 renal = test system: 786-0 renal
A498 renal = test system: A498 renal
A549 NSCLC = test system: A549 NSCLC
ACHN renal = test system: ACHN renal
CAKI-1 renal = test system: CAKI-1 renal
CCRF-CEM leukemia = test system: CCRF-CEM leukemia
COLO 205 colon = test system: COLO 205 colon
DU-145 prostate = test system: DU-145 prostate
EKVX NSCLC = test system: EKVX NSCLC
HCC-2998 colon = test system: HCC-2998 colon
HCT-116 colon = test system: HCT-116 colon
HCT-15 colon = test system: HCT-15 colon
HOP-62 NSCLC = test system: HOP-62 NSCLC
HOP-92 NSCLC = test system: HOP-92 NSCLC
HT29 colon = test system: HT29 colon
IGROV1 ovarian = test system: IGROV1 ovarian
K-562 leukemia = test system: K-562 leukemia
KM12 colon = test system: KM12 colon
LOX IMVI melanoma = test system: LOX IMVI melanoma
M14 melanoma = test system: M14 melanoma
MALME-3M melanoma = test system: MALME-3M melanoma
MCF7 breast = test system: MCF7 breast
MDA-MB-231 breast = test system: MDA-MB-231 breast
MDA-MB-435 = test system: MDA-MB-435
MDA-N = test system: MDA-N
MOLT-4 leukemia = test system: MOLT-4 leukemia
NCI-H226 lung = test system: NCI-H226 lung
NCI-H23 lung = test system: NCI-H23 lung
NCI-H460 lung = test system: NCI-H460 lung
NCI-H522 lung = test system: NCI-H522 lung
NCI/ADR-RES ovarian = test system: NCI/ADR-RES ovarian
OVCAR-3 ovarian = test system: OVCAR-3 ovarian
OVCAR-4 ovarian = test system: OVCAR-4 ovarian
OVCAR-5 ovarian = test system: OVCAR-5 ovarian
OVCAR-8 ovarian = test system: OVCAR-8 ovarian
PC-3 prostate = test system: PC-3 prostate
RXF 393 renal = test system: RXF 393 renal
SF-268 CNS = test system: SF-268 CNS
SF-295 CNS = test system: SF-295 CNS
SF-539 CNS = test system: SF-539 CNS
SK-MEL-2 melanoma = test system: SK-MEL-2 melanoma
SK-MEL-28 melanoma = test system: SK-MEL-28 melanoma
SK-MEL-5 melanoma = test system: SK-MEL-5 melanoma
SK-OV-3 ovarian = test system: SK-OV-3 ovarian
SN12C renal = test system: SN12C renal
SNB-19 CNS = test system: SNB-19 CNS
SNB-75 CNS = test system: SNB-75 CNS
SR leukemia = test system: SR leukemia
SW-620 colon = test system: SW-620 colon
T-47D breast = test system: T-47D breast
TK-10 renal = test system: TK-10 renal
U251 CNS = test system: U251 CNS
UACC-257 melanoma = test system: UACC-257 melanoma
UACC-62 melanoma = test system: UACC-62 melanoma
UO-31 renal = test system: UO-31 renal
HL-60(TB) leukemia = test system: HL-60(TB) leukemia

SMILES: C=C(C)/C=C/C(O)[C@](C)(O)[C@H]1[C@H](O)C[C@@]2(C)[C@@H]3CCc4c(cc(OC5OC(CO)C(O)C(O)C5O)c(O)c4C)C3(C)C(=O)C[C@]12C (stereo not given in full)
- TGI (786-0 renal): > 100 µM
- TGI (A498 renal): > 100 µM
- TGI (A549 NSCLC): > 100 µM
- TGI (ACHN renal): > 100 µM
- TGI (CAKI-1 renal): > 100 µM
- TGI (CCRF-CEM leukemia): > 100 µM
- TGI (COLO 205 colon): > 100 µM
- TGI (DU-145 prostate): > 100 µM
- TGI (EKVX NSCLC): > 100 µM
- TGI (HCC-2998 colon): > 100 µM
- TGI (HCT-116 colon): > 100 µM
- TGI (HCT-15 colon): > 100 µM
- TGI (HOP-62 NSCLC): > 100 µM
- TGI (HOP-92 NSCLC): > 100 µM
- TGI (HT29 colon): > 100 µM
- TGI (IGROV1 ovarian): > 100 µM
- TGI (K-562 leukemia): > 100 µM
- TGI (KM12 colon): > 100 µM
- TGI (LOX IMVI melanoma): > 100 µM
- TGI (M14 melanoma): > 100 µM
- TGI (MALME-3M melanoma): > 100 µM
- TGI (MCF7 breast): > 100 µM
- TGI (MDA-MB-231 breast): > 100 µM
- TGI (MDA-MB-435): > 100 µM
- TGI (MDA-N): > 100 µM
- TGI (MOLT-4 leukemia): > 100 µM
- TGI (NCI-H226 lung): > 100 µM
- TGI (NCI-H23 lung): > 100 µM
- TGI (NCI-H460 lung): > 100 µM
- TGI (NCI-H522 lung): > 100 µM
- TGI (NCI/ADR-RES ovarian): > 100 µM
- TGI (OVCAR-3 ovarian): > 100 µM
- TGI (OVCAR-4 ovarian): > 100 µM
- TGI (OVCAR-5 ovarian): > 100 µM
- TGI (OVCAR-8 ovarian): > 100 µM
- TGI (PC-3 prostate): > 100 µM
- TGI (RXF 393 renal): > 100 µM
- TGI (SF-268 CNS): > 100 µM
- TGI (SF-295 CNS): > 100 µM
- TGI (SF-539 CNS): > 100 µM
- TGI (SK-MEL-2 melanoma): > 100 µM
- TGI (SK-MEL-28 melanoma): > 100 µM
- TGI (SK-MEL-5 melanoma): > 100 µM
- TGI (SK-OV-3 ovarian): > 100 µM
- TGI (SN12C renal): > 100 µM
- TGI (SNB-19 CNS): > 100 µM
- TGI (SNB-75 CNS): > 100 µM
- TGI (SR leukemia): > 100 µM
- TGI (SW-620 colon): > 100 µM
- TGI (T-47D breast): > 100 µM
- TGI (TK-10 renal): > 100 µM
- TGI (U251 CNS): > 100 µM
- TGI (UACC-257 melanoma): > 100 µM
- TGI (UACC-62 melanoma): > 100 µM
- TGI (UO-31 renal): > 100 µM

SMILES: COc1cccc2c1C(=O)c1c(O)c3c(c(O)c1C2=O)CC(O)(C(O)CO)CC3OC1CC2C(OC3COCC(C#N)N32)C(C)O1 (stereo not given)
- TGI (786-0 renal): 0.0282 µM
- TGI (A498 renal): < 0.01 µM
- TGI (A549 NSCLC): > 100 µM
- TGI (ACHN renal): 0.213 µM
- TGI (CCRF-CEM leukemia): < 0.01 µM
- TGI (COLO 205 colon): < 0.01 µM
- TGI (DU-145 prostate): 0.406 µM
- TGI (EKVX NSCLC): 0.0644 µM
- TGI (HCC-2998 colon): < 0.01 µM
- TGI (HCT-15 colon): 1.04 µM
- TGI (HL-60(TB) leukemia): < 0.01 µM
- TGI (HOP-62 NSCLC): 0.0432 µM
- TGI (HOP-92 NSCLC): < 0.01 µM
- TGI (IGROV1 ovarian): < 0.01 µM
- TGI (K-562 leukemia): < 0.01 µM
- TGI (LOX IMVI melanoma): 0.0125 µM
- TGI (M14 melanoma): < 0.01 µM
- TGI (MALME-3M melanoma): < 0.01 µM
- TGI (MCF7 breast): 2.15 µM
- TGI (MDA-MB-231 breast): 0.0139 µM
- TGI (MDA-MB-435): < 0.01 µM
- TGI (MDA-N): < 0.01 µM
- TGI (MOLT-4 leukemia): < 0.01 µM
- TGI (NCI-H226 lung): < 0.01 µM
- TGI (NCI-H23 lung): < 0.01 µM
- TGI (NCI/ADR-RES ovarian): < 0.01 µM
- TGI (OVCAR-4 ovarian): < 0.01 µM
- TGI (OVCAR-5 ovarian): 4.31 µM
- TGI (OVCAR-8 ovarian): 1.71 µM
- TGI (PC-3 prostate): 0.0194 µM
- TGI (RXF 393 renal): < 0.01 µM
- TGI (SF-268 CNS): 0.0324 µM
- TGI (SF-295 CNS): > 100 µM
- TGI (SK-MEL-28 melanoma): < 0.01 µM
- TGI (SK-MEL-5 melanoma): < 0.01 µM
- TGI (SK-OV-3 ovarian): 0.0727 µM
- TGI (SN12C renal): 1.47 µM
- TGI (SNB-19 CNS): 0.0144 µM
- TGI (SR leukemia): > 100 µM
- TGI (SW-620 colon): 13.5 µM
- TGI (T-47D breast): < 0.01 µM
- TGI (TK-10 renal): < 0.01 µM
- TGI (U251 CNS): 0.13 µM
- TGI (UACC-257 melanoma): < 0.01 µM
- TGI (UACC-62 melanoma): < 0.01 µM
